Source: patent publication US20200060276A1, “THIAZOLE COMPOUND AND HERBICIDE” (OAT Agrio Co., Ltd., priority 2017, published 2020)

What was measured:
Assay type in all cases: in vivo
[1] = system: Scirpus juncoides; assay: Test for Herbicidal Effect in Flooding Treatment (#1), SCIJU; conditions: flooding treatment at seeding, dose 2 kg/ha, visual observation on day 21
Procedure, shortened: (§1)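 Sieved soil in cups was flooded and left 24 h before weed seeds were sown. Compounds in acetone, diluted with Tween 80-containing water, were dropped over the whole surface at 2 kg/ha. After 21 days in a glasshouse, growth inhibition was scored visually from 0 (<10%) to 5 (≥90% or complete withering).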

[2] = system: Echinochloa crus-galli (L.) P. Beauv. var. formosensis Ohwi; assay: Test for Herbicidal Effect in Flooding Treatment (#2), ECHDG at 2-2.5 leaf stage; conditions: for ECHDG (2-2.5L) #2 herbicidal effect (growth inhibition grade): flooding treatment at 2-2.5 leaf stage, dose 0.2 kg/ha, visual observation on day 21
Procedure, shortened: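 Scoring is a visual 0–5 scale of growth inhibition (0 below 10%, 5 at 90% or more or full withering), taken 21 days after treatment in a glasshouse. Dose was 0.2 kg/ha, applied as acetone/Tween 80 aqueous solution onto flooded soil once seedlings reached the 2–2.5 leaf stage.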

[3] = system: Cyperus microiria; assay: Test for Herbicidal Effect in Flooding Treatment (#1), CYMIC; conditions: flooding treatment at seeding, dose 2 kg/ha, visual observation on day 21
Procedure: (#1) Test for Herbicidal Effect in Flooding Treatment: Styrol cups each having an opening diameter of 8 cm (about 52 cm^2) were respectively filled with soil (45 ml) which had been passed through a sieve (2 mm). Water (about 115 ml) was mixed with the soil such that the soil was flooded. After the soil stood still for 24 hours, Monochoria vaginalis, Echinochloa crus-galli (L.) P. Beauv. var. formosensis Ohwi, Cyperus difformis (umbrella sedge), and Scirpus juncoides were seeded. Each of the compounds of the present invention was dissolved in acetone, and the obtained product was then diluted with water containing Tween 80®. Each of the resultant chemical solutions was dropped on the entire surface of an associated one of treatment sections, so that each section was treated with 1 ml of the respective chemical solution (a dose of 2 kg/ha). After the treatment, the plants were grown in a glasshouse. On day 21, a survey was conducted on the herbicidal activity by visual observation, and evaluation was made according to the following criteria. 0: Growth inhibition effect is less than 10%. 1: Growth inhibition effect is equal to or greater than 10%, and less than 30%. 2; Growth inhibition effect is equal to or greater than 30%, and less than 50%. 3: Growth inhibition effect equal to or greater than 50%, and less than 70%. 4: Growth inhibition effect is equal to or greater than 70%, and less than 90%. 5: Growth inhibition effect is equal to or greater than 90%, or complete withering is achieved. ECHDG=Echinochloa crus-galli (L.) P. Beauv. var. formosensis Ohwi, MONVA=Monochoria vaginalis, SCIJU=Scirpus juncoides, CYMIC=Cyperus microiria.

[4] = system: Echinochloa crus-galli (L.) P. Beauv. var. formosensis Ohwi; assay: Test for Herbicidal Effect in Flooding Treatment (#1), ECHDG; conditions: flooding treatment at seeding, dose 2 kg/ha, visual observation on day 21
Procedure, shortened: as §1

[5] = system: Monochoria vaginalis; assay: Test for Herbicidal Effect in Flooding Treatment (#1), MONVA; conditions: flooding treatment at seeding, dose 2 kg/ha, visual observation on day 21
Procedure, shortened: as §1

COc1cc(F)ccc1CS(=O)(=O)c1ncc(Cl)s1 [Compound 1C-3]
SCIJU #1 herbicidal effect (growth inhibition grade) [1]: 5 (Growth inhibition effect is equal to or greater than 90%, or complete withering is achieved)
ECHDG (2-2.5L) #2 herbicidal effect (growth inhibition grade) [2]: 4 (Growth inhibition effect is equal to or greater than 70%, and less than 90%)
CYMIC #1 herbicidal effect (growth inhibition grade) [3]: 5 (Growth inhibition effect is equal to or greater than 90%, or complete withering is achieved)
ECHDG #1 herbicidal effect (growth inhibition grade) [4]: 5 (Growth inhibition effect is equal to or greater than 90%, or complete withering is achieved)

COc1cc(Cl)ccc1CS(=O)(=O)c1ncc(Cl)s1 [Compound 1C-4]
SCIJU #1 herbicidal effect (growth inhibition grade) [1]: 5 (Growth inhibition effect is equal to or greater than 90%, or complete withering is achieved)
ECHDG (2-2.5L) #2 herbicidal effect (growth inhibition grade) [2]: 5 (Growth inhibition effect is equal to or greater than 90%, or complete withering is achieved)
CYMIC #1 herbicidal effect (growth inhibition grade) [3]: 5 (Growth inhibition effect is equal to or greater than 90%, or complete withering is achieved)
ECHDG #1 herbicidal effect (growth inhibition grade) [4]: 5 (Growth inhibition effect is equal to or greater than 90%, or complete withering is achieved)

CCOc1c(Cl)cccc1CS(=O)(=O)c1ncc(Cl)s1 [Compound 1C-10]
SCIJU #1 herbicidal effect (growth inhibition grade) [1]: 5 (Growth inhibition effect is equal to or greater than 90%, or complete withering is achieved)
ECHDG (2-2.5L) #2 herbicidal effect (growth inhibition grade) [2]: 5 (Growth inhibition effect is equal to or greater than 90%, or complete withering is achieved)
CYMIC #1 herbicidal effect (growth inhibition grade) [3]: 5 (Growth inhibition effect is equal to or greater than 90%, or complete withering is achieved)
ECHDG #1 herbicidal effect (growth inhibition grade) [4]: 5 (Growth inhibition effect is equal to or greater than 90%, or complete withering is achieved)

CCOc1cc(F)ccc1CS(=O)(=O)c1ncc(Cl)s1 [Compound 1C-12]
SCIJU #1 herbicidal effect (growth inhibition grade) [1]: 5 (Growth inhibition effect is equal to or greater than 90%, or complete withering is achieved)
ECHDG (2-2.5L) #2 herbicidal effect (growth inhibition grade) [2]: 4 (Growth inhibition effect is equal to or greater than 70%, and less than 90%)
CYMIC #1 herbicidal effect (growth inhibition grade) [3]: 5 (Growth inhibition effect is equal to or greater than 90%, or complete withering is achieved)
ECHDG #1 herbicidal effect (growth inhibition grade) [4]: 5 (Growth inhibition effect is equal to or greater than 90%, or complete withering is achieved)

CCOc1cc(C)ccc1CS(=O)(=O)c1ncc(Cl)s1 [Compound 1C-13]
SCIJU #1 herbicidal effect (growth inhibition grade) [1]: 5 (Growth inhibition effect is equal to or greater than 90%, or complete withering is achieved)
ECHDG (2-2.5L) #2 herbicidal effect (growth inhibition grade) [2]: 5 (Growth inhibition effect is equal to or greater than 90%, or complete withering is achieved)
CYMIC #1 herbicidal effect (growth inhibition grade) [3]: 5 (Growth inhibition effect is equal to or greater than 90%, or complete withering is achieved)
ECHDG #1 herbicidal effect (growth inhibition grade) [4]: 5 (Growth inhibition effect is equal to or greater than 90%, or complete withering is achieved)

CCOc1cc(C(F)(F)F)ccc1CS(=O)(=O)c1ncc(Cl)s1 [Compound 1C-14]
SCIJU #1 herbicidal effect (growth inhibition grade) [1]: 5 (Growth inhibition effect is equal to or greater than 90%, or complete withering is achieved)
ECHDG (2-2.5L) #2 herbicidal effect (growth inhibition grade) [2]: 4 (Growth inhibition effect is equal to or greater than 70%, and less than 90%)
CYMIC #1 herbicidal effect (growth inhibition grade) [3]: 5 (Growth inhibition effect is equal to or greater than 90%, or complete withering is achieved)
ECHDG #1 herbicidal effect (growth inhibition grade) [4]: 5 (Growth inhibition effect is equal to or greater than 90%, or complete withering is achieved)

CCOc1ccc(Cl)cc1CS(=O)(=O)c1ncc(Cl)s1 [Compound 1C-16]
SCIJU #1 herbicidal effect (growth inhibition grade) [1]: 5 (Growth inhibition effect is equal to or greater than 90%, or complete withering is achieved)
inhibition at 200 g/ha ([2]; Echinochloa crus-galli, 504 h, flooding treatment (#2), ECHDG at 2-2.5 leaf stage, dose of 0.2 kg/ha, day 21, visual observation, read-out: growth inhibition effect): ≥ 90%
ECHDG (2-2.5L) #2 herbicidal effect (growth inhibition grade) [2]: 5 (Growth inhibition effect is equal to or greater than 90%, or complete withering is achieved)
CYMIC #1 herbicidal effect (growth inhibition grade) [3]: 5 (Growth inhibition effect is equal to or greater than 90%, or complete withering is achieved)
ECHDG #1 herbicidal effect (growth inhibition grade) [4]: 5 (Growth inhibition effect is equal to or greater than 90%, or complete withering is achieved)

CCOc1ccc(Br)cc1CS(=O)(=O)c1ncc(Cl)s1 [Compound 1C-17]
SCIJU #1 herbicidal effect (growth inhibition grade) [1]: 5 (Growth inhibition effect is equal to or greater than 90%, or complete withering is achieved)
ECHDG (2-2.5L) #2 herbicidal effect (growth inhibition grade) [2]: 5 (Growth inhibition effect is equal to or greater than 90%, or complete withering is achieved)
CYMIC #1 herbicidal effect (growth inhibition grade) [3]: 5 (Growth inhibition effect is equal to or greater than 90%, or complete withering is achieved)
ECHDG #1 herbicidal effect (growth inhibition grade) [4]: 5 (Growth inhibition effect is equal to or greater than 90%, or complete withering is achieved)

COc1cccc(OC)c1CS(=O)(=O)c1ncc(Cl)s1 [Compound 1C-127]
SCIJU #1 herbicidal effect (growth inhibition grade) [1]: 5 (Growth inhibition effect is equal to or greater than 90%, or complete withering is achieved)
CYMIC #1 herbicidal effect (growth inhibition grade) [3]: 5 (Growth inhibition effect is equal to or greater than 90%, or complete withering is achieved)
ECHDG #1 herbicidal effect (growth inhibition grade) [4]: 5 (Growth inhibition effect is equal to or greater than 90%, or complete withering is achieved)

O=S(=O)(Cc1c(F)cc(F)cc1OC(F)F)c1ncc(Br)s1 [Compound 1C-156]
SCIJU #1 herbicidal effect (growth inhibition grade) [1]: 5 (Growth inhibition effect is equal to or greater than 90%, or complete withering is achieved)
ECHDG (2-2.5L) #2 herbicidal effect (growth inhibition grade) [2]: 5 (Growth inhibition effect is equal to or greater than 90%, or complete withering is achieved)
MONVA #1 herbicidal effect (growth inhibition grade) [5]: 5 (Growth inhibition effect is equal to or greater than 90%, or complete withering is achieved)
ECHDG #1 herbicidal effect (growth inhibition grade) [4]: 5 (Growth inhibition effect is equal to or greater than 90%, or complete withering is achieved)

O=S(=O)(Cc1c(OC(F)F)ccc(Cl)c1F)c1ncc(Br)s1 [Compound 1C-157]
SCIJU #1 herbicidal effect (growth inhibition grade) [1]: 5 (Growth inhibition effect is equal to or greater than 90%, or complete withering is achieved)
ECHDG (2-2.5L) #2 herbicidal effect (growth inhibition grade) [2]: 5 (Growth inhibition effect is equal to or greater than 90%, or complete withering is achieved)
MONVA #1 herbicidal effect (growth inhibition grade) [5]: 5 (Growth inhibition effect is equal to or greater than 90%, or complete withering is achieved)
ECHDG #1 herbicidal effect (growth inhibition grade) [4]: 5 (Growth inhibition effect is equal to or greater than 90%, or complete withering is achieved)

O=S(=O)(Cc1c(OCC(F)(F)F)cccc1C(F)(F)F)c1ncc(Br)s1 [Compound 1C-162]
SCIJU #1 herbicidal effect (growth inhibition grade) [1]: 5 (Growth inhibition effect is equal to or greater than 90%, or complete withering is achieved)
ECHDG (2-2.5L) #2 herbicidal effect (growth inhibition grade) [2]: 5 (Growth inhibition effect is equal to or greater than 90%, or complete withering is achieved)
MONVA #1 herbicidal effect (growth inhibition grade) [5]: 5 (Growth inhibition effect is equal to or greater than 90%, or complete withering is achieved)
ECHDG #1 herbicidal effect (growth inhibition grade) [4]: 5 (Growth inhibition effect is equal to or greater than 90%, or complete withering is achieved)

O=S(=O)(Cc1c(F)cccc1OCC(F)(F)C(F)F)c1ncc(Br)s1 [Compound 1C-164]
SCIJU #1 herbicidal effect (growth inhibition grade) [1]: 5 (Growth inhibition effect is equal to or greater than 90%, or complete withering is achieved)
ECHDG (2-2.5L) #2 herbicidal effect (growth inhibition grade) [2]: 5 (Growth inhibition effect is equal to or greater than 90%, or complete withering is achieved)
MONVA #1 herbicidal effect (growth inhibition grade) [5]: 5 (Growth inhibition effect is equal to or greater than 90%, or complete withering is achieved)
ECHDG #1 herbicidal effect (growth inhibition grade) [4]: 5 (Growth inhibition effect is equal to or greater than 90%, or complete withering is achieved)

CC(c1c(F)cccc1OCC(F)(F)C(F)F)S(=O)(=O)c1ncc(Br)s1 (centres unmarked) [Compound 1C-165]
SCIJU #1 herbicidal effect (growth inhibition grade) [1]: 5 (Growth inhibition effect is equal to or greater than 90%, or complete withering is achieved)
ECHDG (2-2.5L) #2 herbicidal effect (growth inhibition grade) [2]: 3 (Growth inhibition effect equal to or greater than 50%, and less than 70%)
MONVA #1 herbicidal effect (growth inhibition grade) [5]: 5 (Growth inhibition effect is equal to or greater than 90%, or complete withering is achieved)
ECHDG #1 herbicidal effect (growth inhibition grade) [4]: 5 (Growth inhibition effect is equal to or greater than 90%, or complete withering is achieved)
